Where only a bound is given, the exact number is not on record here.

Results on five molecules are retold here after the supplement of paper PMC13380429.

Holding throughout (conditions): 72 h
In test [1] the test system is Vero E6. Kind of test: drug sensitivity score (DSS) for viability; higher = more toxic; extreme values may be limits of the assay.
Test [2] relates to U2OS. The test is described as above.
In test [3] the test system is Calu-3. The description is as above.
Test [4] deals with Caco-2. The test is described as above.
Test [5] relates to HepG2. The description is as above.
In test [6] the test system is Vero E6. Kind of test: relative viability EC50 (midpoint between 100% and the lowest measured viability); higher = less toxic.
The subject of test [7] is Calu-3. The description is as above.
The test system of test [8] is Caco-2. The test is described as above.
For test [9], the system named is HepG2. Described as above.
In test [10] the test system is Vero E6. Kind of test: cell viability relative to DMSO; higher = less toxic.
For test [11], the system named is U2OS. Described as above.
The test system of test [12] is Calu-3. The description is as above.
For test [13], the system named is Caco-2. The test is described as above.
Test [14] deals with HepG2. Described as above.

For the molecule `COc1cc2nccc(Oc3ccc(NC(=O)C4(C(=O)Nc5ccc(F)cc5)CC4)cc3)c2cc1OC` [cabozantinib], the drug sensitivity score came out at 2.8 with Vero E6 [1]; 2.8 in the test with U2OS [2]; 5.3 in the test on Calu-3 [3]; 6.3 in the test with Caco-2 [4]; 3.1 in the test on HepG2 [5]. For the same molecule, the “relative viability EC50” value in the test with Vero E6 [6] worked out at 3.07 µM; in the test on Calu-3 [7], 1.75 µM; with Caco-2 [8], 1.47 µM; in the test on HepG2 [9], 3.02 µM. The cell viability in the test with Vero E6 [10] (1 nM) is 101%; in the test on Vero E6 [10] (10 nM) it was 98%; in the test with Vero E6 [10] (100 nM) it was 97.2%; in the test with Vero E6 [10] (1000 nM), 99.3%; with Vero E6 [10] (10000 nM) it was 48%; in the test on U2OS [11] (1 nM) it was 103%. The cell viability with U2OS [11] (10 nM) was found to be 104%; in the test on U2OS [11] (100 nM), 99%; in the test with U2OS [11] (1000 nM), 98.3%; in the test with U2OS [11] (10000 nM) it was 50.1%; in the test on Calu-3 [12] (1 nM), 94.2%; in the test on Calu-3 [12] (10 nM), 109%. Moreover, the cell viability was 100% in the test on Calu-3 [12] (100 nM); 88.1% in the test on Calu-3 [12] (1000 nM); 39.2% with Calu-3 [12] (10000 nM); 93% in the test with Caco-2 [13] (1 nM); 97.4% in the test with Caco-2 [13] (10 nM); 96.7% in the test on Caco-2 [13] (100 nM). The cell viability amounted to 82% in the test with Caco-2 [13] (1000 nM); 35% with Caco-2 [13] (10000 nM); 107% with HepG2 [14] (1 nM); 92.6% in the test with HepG2 [14] (10 nM); 97.1% with HepG2 [14] (100 nM); 98.9% in the test on HepG2 [14] (1000 nM). The cell viability with HepG2 [14] (10000 nM) turned out to be 44.4%.

For `COc1cc2c(cc1OC)C(=O)C(CC1CCN(Cc3ccccc3)CC1)C2` (configuration not stated) [donepezil], the drug sensitivity score in the test on Vero E6 [1] was 0.3; with Calu-3 [3], 0; with Caco-2 [4], 0; with HepG2 [5], 0. The “relative viability EC50” value in the test on Vero E6 [6], with Calu-3 [7], in the test with Caco-2 [8] and in the test on HepG2 [9] was above 10 µM throughout. Also, the cell viability was found to be 91.9% in the test on Calu-3 [12] (1 nM); 92.4% with Calu-3 [12] (10 nM); 96% with Calu-3 [12] (100 nM); 92% with Calu-3 [12] (1000 nM); 94.1% with Calu-3 [12] (10000 nM); 103% in the test on Caco-2 [13] (1 nM). Besides, the cell viability stood at 102% with Caco-2 [13] (10 nM); 104% with Caco-2 [13] (100 nM); 91.4% in the test with Caco-2 [13] (1000 nM); 96.4% in the test on Caco-2 [13] (10000 nM); 114% with HepG2 [14] (1 nM); 106% in the test with HepG2 [14] (10 nM). Besides, the cell viability in the test with HepG2 [14] (100 nM) stood at 98.8%; in the test with HepG2 [14] (1000 nM) it was 102%; in the test on HepG2 [14] (10000 nM) it was 91.2%.

For the molecule `Cn1c(=O)c2c(ncn2CC2OCCO2)n(C)c1=O` [doxofylline], the drug sensitivity score in the test on Vero E6 [1] stood at 0; in the test with U2OS [2], 0; with Calu-3 [3], 0; with HepG2 [5] it was 1.3.

As to `CN1CCc2nc(C(=O)N[C@@H]3C[C@@H](C(=O)N(C)C)CC[C@@H]3NC(=O)C(=O)Nc3ccc(Cl)cn3)sc2C1` [edoxaban], the drug sensitivity score with Vero E6 [1], in the test with Calu-3 [3], with Caco-2 [4] and in the test on HepG2 [5] was 0 each time. Besides, the “relative viability EC50” value in the test on Vero E6 [6], in the test on Calu-3 [7], in the test on Caco-2 [8] and in the test on HepG2 [9] was above 10 µM in each case. For the same molecule, the cell viability with Vero E6 [10] (1 nM) was 99.5%; in the test on Vero E6 [10] (10 nM), 96%; in the test on Vero E6 [10] (100 nM), 94.8%; in the test on Vero E6 [10] (1000 nM), 92.7%; with Vero E6 [10] (10000 nM), 104%; with Calu-3 [12] (1 nM), 97.6%. Further, the cell viability in the test on Calu-3 [12] (10 nM) was 96.4%; with Calu-3 [12] (100 nM), 92.8%; in the test with Calu-3 [12] (1000 nM), 98.3%; in the test with Calu-3 [12] (10000 nM), 105%; with Caco-2 [13] (1 nM), 92.4%; in the test with Caco-2 [13] (10 nM) it was 102%. Further, the cell viability was 94.4% in the test with Caco-2 [13] (100 nM); 101% in the test with Caco-2 [13] (1000 nM); 107% in the test with Caco-2 [13] (10000 nM); 106% in the test on HepG2 [14] (1 nM); 94.9% in the test on HepG2 [14] (10 nM); 106% in the test with HepG2 [14] (100 nM). Moreover, the values for the cell viability in the test on HepG2 [14] (1000 nM) and with HepG2 [14] (10000 nM) were 96.4% and 101%, respectively.

As for `CCn1cc(C(=O)O)c(=O)c2cc(F)c(N3CCNCC3)nc21` [enoxacin], the drug sensitivity score with Vero E6 [1], with Calu-3 [3], with Caco-2 [4] and with HepG2 [5] was 0 throughout. Also, the “relative viability EC50” value in the test with Vero E6 [6], with Calu-3 [7], in the test with Caco-2 [8] and with HepG2 [9] was above 10 µM in each case. In addition, the cell viability in the test with Vero E6 [10] (1 nM) is 101%; with Vero E6 [10] (10 nM), 110%; with Vero E6 [10] (100 nM) it was 103%; in the test on Vero E6 [10] (1000 nM) it was 103%; with Vero E6 [10] (10000 nM) it was 97.6%; with Calu-3 [12] (1 nM), 97.7%. Also, the cell viability with Calu-3 [12] (10 nM) is 103%; in the test on Calu-3 [12] (100 nM), 106%; with Calu-3 [12] (1000 nM), 105%; with Calu-3 [12] (10000 nM), 107%; in the test with Caco-2 [13] (1 nM), 105%; in the test with Caco-2 [13] (10 nM), 105%. Further, the cell viability with Caco-2 [13] (100 nM) is 103%; in the test on Caco-2 [13] (1000 nM) it was 99.2%; in the test with Caco-2 [13] (10000 nM), 99.6%; with HepG2 [14] (1 nM), 105%; in the test with HepG2 [14] (10 nM) it was 105%; in the test on HepG2 [14] (100 nM) it was 99.8%. Further, the values for the cell viability in the test on HepG2 [14] (1000 nM) and in the test with HepG2 [14] (10000 nM) were 96% and 97.6%, respectively.
